Source: the supplement of paper PMC10307832

Experiments:
Assay in all cases: relative viability (nuclei count vs DMSO), 5 days (fraction); higher = more cells survive
[1] = compound: Cc1ccc2nc(NCCN)c3ncc(C)n3c2c1 + Nc1nc2[nH]cc(CCc3ccc(C(=O)N[C@@H](CCC(=O)O)C(=O)O)cc3)c2c(=O)[nH]1 [Pemetrexed] (partner 0.2 µM)
Summary of the method: (§1)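 Relative viability equals treated-well nuclei counts divided by vehicle-well nuclei counts. Counts came from 4× images of lung cancer cell lines grown in 1536-well plates for 5 days after pin-tool dosing on the day after seeding. Dosing used one drug alone or a fixed anchor-drug dose plus five library-drug doses (not always all listed) in √10 steps, and values are medians of duplicate plates.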

Salubrinal + OSI-027 = compound: O=C(/C=C/c1ccccc1)NC(NC(=S)Nc1cccc2cccnc12)C(Cl)(Cl)Cl [Salubrinal] + COc1cccc2cc(-c3nc([C@H]4CC[C@H](C(=O)O)CC4)n4ncnc(N)c34)[nH]c12 [OSI-027] (partner 0.5 µM)
Summary of the method: as §1

Salubrinal + Decitabine = compound: O=C(/C=C/c1ccccc1)NC(NC(=S)Nc1cccc2cccnc12)C(Cl)(Cl)Cl [Salubrinal] + Nc1ncn([C@H]2C[C@H](O)[C@@H](CO)O2)c(=O)n1 [Decitabine] (partner 2 µM)
Summary of the method: as §1

Salubrinal + Olaparib = compound: O=C(/C=C/c1ccccc1)NC(NC(=S)Nc1cccc2cccnc12)C(Cl)(Cl)Cl [Salubrinal] + O=C(c1cc(Cc2n[nH]c(=O)c3ccccc23)ccc1F)N1CCN(C(=O)C2CC2)CC1 [Olaparib] (partner 8 µM)
Summary of the method: as §1

Cell Line | relative viability ([1]; first compound 0.04 µM) | relative viability ([1]; first compound 0.1265 µM) | relative viability ([1]; first compound 0.4 µM) | relative viability ([1]; first compound 1.265 µM) | relative viability ([1]; first compound 4 µM) | relative viability (Salubrinal + OSI-027; first compound 0.08 µM) | relative viability (Salubrinal + OSI-027; first compound 0.253 µM) | relative viability (Salubrinal + OSI-027; first compound 0.8 µM) | relative viability (Salubrinal + OSI-027; first compound 2.53 µM) | relative viability (Salubrinal + OSI-027; first compound 8 µM) | relative viability (Salubrinal + Decitabine; first compound 0.08 µM) | relative viability (Salubrinal + Decitabine; first compound 0.253 µM) | relative viability (Salubrinal + Decitabine; first compound 0.8 µM) | relative viability (Salubrinal + Decitabine; first compound 2.53 µM) | relative viability (Salubrinal + Decitabine; first compound 8 µM) | relative viability (Salubrinal + Olaparib; first compound 0.08 µM) | relative viability (Salubrinal + Olaparib; first compound 0.253 µM) | relative viability (Salubrinal + Olaparib; first compound 0.8 µM) | relative viability (Salubrinal + Olaparib; first compound 2.53 µM) | relative viability (Salubrinal + Olaparib; first compound 8 µM)
NCI-H1437 | 0.304 | 0.312 | 0.332 | 0.296 | 0.35 | 0.9 | 0.811 | 0.924 | 0.912 | 0.851 | 0.549 | 0.502 | 0.523 | 0.564 | 0.612 | 0.673 | 0.547 | 0.665 | 0.614 | 0.543
COR-L23 | 0.191 | 0.191 | 0.204 | 0.218 | 0.208 | 0.868 | 0.547 | 1.1 | 0.794 | 0.71 | 0.408 | 0.395 | 0.451 | 0.473 | 0.386 | 0.392 | 0.323 | 0.355 | 0.315 | 0.325
ABC-1 | – | – | – | – | – | 0.513 | 0.578 | 0.712 | 0.626 | 0.371 | 1.42 | 0.915 | 1.14 | 1.01 | 1.13 | 0.831 | 0.67 | 0.741 | 0.633 | 0.8
SK-MES-1 | 1.04 | 0.903 | 0.9 | 1.05 | 0.92 | 0.623 | 0.629 | 0.675 | 0.448 | 0.445 | 0.405 | 0.359 | 0.365 | 0.356 | 0.495 | 0.769 | 0.694 | 0.845 | 0.605 | 0.598
NCI-H838 | 0.277 | 0.247 | 0.252 | 0.302 | 0.419 | 0.327 | 0.402 | 0.372 | 0.4 | 0.407 | 0.493 | 0.471 | 0.462 | 0.417 | 0.464 | 0.896 | 0.542 | 0.832 | 0.789 | 0.716
SW 900 | – | 0.49 | 0.444 | 0.464 | 0.489 | 0.545 | – | 0.737 | 0.576 | 0.481 | 0.483 | 0.466 | 0.512 | 0.419 | 0.519 | 1.04 | 1.07 | 0.892 | 0.793 | 0.801
A549 | – | – | – | – | – | – | – | – | – | – | – | 0.253 | 0.245 | 0.257 | 0.246 | 0.226 | 0.344 | 0.438 | 0.31 | 0.287
A-427 | 0.979 | 0.939 | 1.02 | 0.95 | 0.948 | 0.409 | 0.516 | 0.568 | 0.437 | 0.452 | 0.575 | 0.564 | 0.57 | 0.539 | 0.597 | 0.751 | 0.7 | 0.793 | 0.682 | 0.744
NCI-H1792 | 1.33 | 0.774 | – | 0.801 | 0.618 | 0.97 | – | 0.626 | 0.75 | 0.684 | 0.608 | – | 0.741 | 0.49 | 0.405 | 0.531 | – | 0.583 | 0.287 | 0.408
